Assay results reported in patent publication US20210113501A1, “METHOD OF ADMINISTERING BETA-HYDROXY-BETA-METHYLBUTYRATE (HMB)” (Metabolic Technologies, Inc., priority 2009, published 2021).
Where two headings read alike, the source gives them in different places.

What was measured:
[1] = Study 2 hematology; format: in vivo, human; details: for Basophils (absolute) % Change / Basophils, % - % Change / Eosinophils (absolute) % Change / Eosinophils, % - % Change / Hematocrit % Change / Hemoglobin % Change / Lymphocytes (absolute) % Change / Lymphocytes, % - % Change / MCH % Change / MCHC % Change / MCV % Change / Monocytes (absolute) % Change / Monocytes, % - % Change / Neutrophils (absolute) % Change / Neutrophils, % - % Change / Platelets % Change / RBC % Change / RDW % Change / WBC % Change: Before to After
Experimental: (§1) Study 2 design. Study 2 was conducted similar to study 1 with the following modifications. In study 2, plasma levels of HMB were measured for 1440 min (24 h) and total urine collection was also performed for measurement of urinary HMB excretion during this period. After the 180 min blood sample, the subjects were allowed to leave the laboratory and were instructed to return to the laboratory for additional blood samples at 360, 720, and 1440 min after the ingestion of the supplement. As in study 1, each subject took each of the treatments with at least a one week washout period between treatments. Samples were again stored frozen at −70° C. for analysis of plasma and urinary HMB concentrations. Pre-ingestion, 180 min and 1440 min blood samples were again assayed for the same measurements already for study 1. Subjects were provided with a standardized lunch after the 180 min blood sampling and instructed to eat this at approximately 240 min post ingestion. Following the 720 min blood sample, subjects were instructed to eat a normal evening meal before 10 pm. Subjects reported back to the laboratory the following morning for the fasted 1440 min blood sample. A urine collection container was provided and subjects collected all urine produced during the experimental 24 h experimental period. The urine was stored refrigerated when not being collected. Urine volumes were measured and samples of the total urine collection were taken and stored frozen at −70° C. until analyzed for HMB.
The data were analyzed using a crossover design with Proc GLM in SAS. (45) For the timed sampling of plasma HMB a repeated measures polynomial model was used. The model included subject, order, and treatment main effects and time by treatment interaction where appropriate. For other parameters Proc GLM was also used with subject, order, and treatment main effects and the p values are reported for the treatment main effect. Statistical significance was determined for p<0.05 and a trend was determined for 0.05<p<0.10.

[2] = Study 2: plasma HMB and urinary HMB excretion over 24 h; format: in vivo, human; details: Study 2; for AUC plasma HMB: 24 h; for tpeak: unit as in Table 5; for Clearance: Vd assumed 20% of body weight
Source text: Human subjects. In study 1, four male and four female college-aged subjects were studied. In study 2, an additional four male and four female college-aged subjects were studied. The protocols for both studies were approved by the Iowa State University IRB and each subject gave informed consent to participate in the study. Due to the nature of the treatments, neither the subjects nor the researchers could be blinded.
Treatments. The same treatments were given to the subjects in both study groups. The three treatments were given in random order to each subject with at least a one week washout period between treatments. The treatments were supplied by Metabolic Technologies, Inc. (MTI, Ames, Iowa) and were prepared with food grade ingredients. One gram of CaHMB or the equivalent HMB in free acid in a gel form was administered to the subjects. The CaHMB capsules were obtained from a commercial supplement manufacturer (Optimum Nutrition, Aurora, Ill.) while the HMB-acid gel was prepared at MTI laboratories. Briefly, the HMB-acid was adjusted to a pH 4.5 with potassium carbonate (K2CO3) and flavors and sweeteners were then added. The 1.0 g CaHMB capsule was taken with 355 mL of water (approx. 12 oz.). The free acid gel dosage was 0.80 g and was equivalent to the free acid contained in the CaHMB in the capsule. The free acid gel treatments were either swallowed (FASW) or held sublingual for 15 seconds and then swallowed (FASL). FASW consisted of expelling the entire dose into the mouth in a 3 ml syringe, swallowing, and then following this with 355 mL of water. FASL subjects were instructed to place the entire dosage under the tongue and hold the dosage for 15 sec before swallowing. They then rinsed and followed the dose with 355 mL of water.
as §1
HMB analysis. Plasma and urine HMB were analyzed by gas chromatography/mass spectrometry (GC/MS) as previously described.(27)
Calculations and statistics. Areas under the curves were calculated for each subject using the trapezoidal method that sums the area above baseline.(51) Half-life of plasma HMB was calculated for study 2. The following equations were used:
k=(ln(Cpeak)−ln(Ctrough))/Tinterval
Peak plasma concentrations for each subject were used for Cpeak. […] Tpeak was the time at which Cpeak was measured and Tinterval is the time from Tpeak until the time at Ctrough (720 min). The extracellular fluid compartment was assumed to be 20% of body weight and calculated using equation 3 below(1). […]

## CC(C)(O)CC(=O)O [HMB-Acid Gel Swallow, 3-hydroxy-3-methylbutyric acid]
[1]; After (24 h)
  Basophils (absolute): 0.09 ± 0.03 ×10^3/μL
  Basophils, %: 0.9 ± 0.3%
  Eosinophils (absolute): 0.2 ± 0.04 ×10^3/μL
  Eosinophils, %: 3.0 ± 0.5%
  Hematocrit: 38.9 ± 1.1%
  Hemoglobin: 13.4 ± 0.4 g/dL
  Lymphocytes (absolute): 3.1 ± 0.3 ×10^3/μL
  Lymphocytes, %: 43.3 ± 3.9%
  MCH: 30.5 ± 0.6 pg
  MCHC: 34.5 ± 0.2 g/dL
  MCV: 88.6 ± 1.5 fL
  Monocytes (absolute): 0.5 ± 0.04 ×10^3/μL
  Monocytes, %: 6.9 ± 0.8%
  Neutrophils (absolute): 3.3 ± 0.4 ×10^3/μL
  Neutrophils, %: 46.0 ± 4.4%
  Platelets: 242.4 ± 12.2 ×10^3/μL
  RBC: 4.4 ± 0.1 ×10^6/µL
  RDW: 13.2 ± 0.2%
  WBC: 7.1 ± 0.3 ×10^3/μL
[1]; Before
  Basophils (absolute): 0.05 ± 0.02 ×10^3/μL
  Basophils, %: 0.5 ± 0.2%
  Eosinophils (absolute): 0.2 ± 0.03 ×10^3/μL
  Eosinophils, %: 2.8 ± 0.5%
  Hematocrit: 37.4 ± 1.0%
  Hemoglobin: 13.0 ± 0.4 g/dL
  Lymphocytes (absolute): 2.8 ± 0.2 ×10^3/μL
  Lymphocytes, %: 43.6 ± 2.4%
  MCH: 30.6 ± 0.6 pg
  MCHC: 34.8 ± 0.2 g/dL
  MCV: 88.1 ± 1.5 fL
  Monocytes (absolute): 0.5 ± 0.1 ×10^3/μL
  Monocytes, %: 7.5 ± 1.1%
  Neutrophils (absolute): 2.9 ± 0.2 ×10^3/μL
  Neutrophils, %: 45.6 ± 2.7%
  Platelets: 229.0 ± 12.9 ×10^3/μL
  RBC: 4.2 ± 0.1 ×10^6/µL
  RDW: 13.3 ± 0.2%
  WBC: 6.4 ± 0.3 ×10^3/μL
[1]
  Basophils (absolute) % Change: 75.0%
  Basophils, % - % Change: 75.0%
  Eosinophils (absolute) % Change: 13.3%
  Eosinophils, % - % Change: 9.1%
  Hematocrit % Change: 4.2%
  Hemoglobin % Change: 3.2%
  Lymphocytes (absolute) % Change: 9.4%
  Lymphocytes, % - % Change: −0.9%
  MCH % Change: −0.3%
  MCHC % Change: −0.8%
  MCV % Change: 0.6%
  Monocytes (absolute) % Change: 2.6%
  Monocytes, % - % Change: −8.3%
  Neutrophils (absolute) % Change: 10.6%
  Neutrophils, % - % Change: 0.8%
  Platelets % Change: 5.8%
  RBC % Change: 3.5%
  RDW % Change: −0.5%
  WBC % Change: 9.7%
[2]
  24 h Urine HMB: 1.21 ± 0.19 mmol
  24 h Urine HMB, % initial dose: 17.8 ± 2.9 % initial dose
  Cpeak (peak plasma HMB concentration): 238.6 ± 16.0 nmol/mL
  AUC plasma HMB: 53,395 ± 2,862 nmol/1440 min
  tpeak: 41.9 ± 5.8 min
[2]; listed as FASW
  24 h Urine HMB, % initial dose: 17.8±2.9 % initial dose
  Cpeak (peak plasma HMB concentration): 238.6 ± 16.0 nmol/mL
  time to peak plasma HMB concentration: 41.9 ± 5.8 min
[2]; over 24 hours, listed as FASW
  AUC greater than for CaHMB capsules: 15.4%
[2]; both sexes, human, plasma, oral, 0.8 g
  half-life: 2.5 ± 0.13 h
[2]; both sexes, human, plasma, oral, 0.8 g, read-out: Clearance
  Clearance: 67.3 ± 3.2 mL/min

## CC(C)(O)CC(=O)[O-].CC(C)(O)CC(=O)[O-].[Ca+2] [CaHMB, calcium β-hydroxy-β-methylbutryate, reference compound]
[1]; After (24 h)
  Basophils (absolute): 0.06 ± 0.02 ×10^3/μL
  Basophils, %: 0.8 ± 0.2%
  Eosinophils (absolute): 0.2 ± 0.03 ×10^3/μL
  Eosinophils, %: 2.6 ± 0.4%
  Hematocrit: 38.3 ± 1.7%
  Hemoglobin: 13.3 ± 0.6 g/dL
  Lymphocytes (absolute): 2.8 ± 0.3 ×10^3/μL
  Lymphocytes, %: 42.5 ± 3.5%
  MCH: 30.7 ± 0.6 pg
  MCHC: 34.7 ± 0.2 g/dL
  MCV: 88.5 ± 1.4 fL
  Monocytes (absolute): 0.5 ± 0.1 ×10^3/μL
  Monocytes, %: 8.5 ± 1.5%
  Neutrophils (absolute): 3.0 ± 0.2 ×10^3/μL
  Neutrophils, %: 45.6 ± 3.3%
  Platelets: 235.9 ± 10.9 ×10^3/μL
  RBC: 4.3 ± 0.2 ×10^6/µL
  RDW: 13.4 ± 0.1%
  WBC: 6.5 ± 0.3 ×10^3/μL
[1]; Before
  Basophils (absolute): 0.06 ± 0.02 ×10^3/μL
  Basophils, %: 0.6 ± 0.2%
  Eosinophils (absolute): 0.2 ± 0.04 ×10^3/μL
  Eosinophils, %: 2.9 ± 0.5%
  Hematocrit: 38.1 ± 1.8%
  Hemoglobin: 13.2 ± 0.7 g/dL
  Lymphocytes (absolute): 3.3 ± 0.3 ×10^3/μL
  Lymphocytes, %: 44.8 ± 3.2%
  MCH: 30.6 ± 0.5 pg
  MCHC: 34.7 ± 0.2 g/dL
  MCV: 88.4 ± 1.5 fL
  Monocytes (absolute): 0.5 ± 0.1 ×10^3/μL
  Monocytes, %: 6.9 ± 0.9%
  Neutrophils (absolute): 3.3 ± 0.3 ×10^3/μL
  Neutrophils, %: 44.9 ± 3.8%
  Platelets: 228.0 ± 17.6 ×10^3/μL
  RBC: 4.3 ± 0.2 ×10^6/µL
  RDW: 13.4 ± 0.2%
[1]
  Basophils (absolute) % Change: 0.0%
  Basophils, % - % Change: 20.0%
  Eosinophils (absolute) % Change: −12.5%
  Eosinophils, % - % Change: −8.7%
  Hematocrit % Change: 0.7%
  Hemoglobin % Change: 0.7%
  Lymphocytes (absolute) % Change: −13.5%
  Lymphocytes, % - % Change: −5.0%
  MCH % Change: 0.2%
  MCHC % Change: 0.0%
  MCV % Change: 0.1%
  Monocytes (absolute) % Change: 5.0%
  Monocytes, % - % Change: 23.6%
  Neutrophils (absolute) % Change: −9.9%
  Neutrophils, % - % Change: 1.7%
  Platelets % Change: 3.5%
  RBC % Change: 0.7%
  RDW % Change: −0.1%
  WBC % Change: −10.5%
[2]
  24 h Urine HMB: 1.00 ± 0.13 mmol
  24 h Urine HMB, % initial dose: 14.7±2.0 % initial dose
  Cpeak (peak plasma HMB concentration): 131.2 ± 6.0 nmol/mL
  Half-life of plasma HMB: 3.17 ± 0.22 h
  time to peak plasma HMB concentration: 135.0 ± 17.0 min
  AUC plasma HMB: 46,281 ± 2,717 nmol/1440 min
  Clearance: 53.9 ± 4.2 mL/min
  tpeak: 135 ± 17 min
[2]; p<0.05
  plasma HMB level at 360 and 720 min versus free acid gel: slightly higher
